{"source": "patent US20250064846A1", "about": "“TREATMENT AND PREVENTION OF TRIGEMINAL NEURALGIA” (THE JOHNS HOPKINS UNIVERSITY, priority 2022, published 2025)", "key": {"NRF2 [1]": {"test_system": "NRF2", "assay": "NRF2 stability, ubiquitination and nuclear translocation in HEK-293 cells overexpressing FLAG-KEAP1 and myc-NRF2", "assay_type": "cell-based", "settings": "for stabilization of NRF2 / nuclear translocation of NRF2: 10 μM for 6 hours; for nuclear translocation of NRF2: nuclear myc-NRF2 vs vehicle; for inhibition of NRF2 ubiquitination: HEK-293 cells overexpressing FLAG-KEAP1, myc-NRF2 and HA-ubiquitin", "protocol": "To determine a ratio of KFAP1 to NRF2 cDNA that best mimics baseline NRF2 activity, luciferase activity was measured 48 h after transfection with varying ratios of KEAP1 to NRF2 cDNA, normalized to total protein (FIG. 21A). Luciferase expression is controlled by a promoter that contains several NRF2 binding sites and is thus a measure of NRF2 activity. A 2.5 μg KFAP1 to 1 μg NRF2 cDNA ratio returned luciferase activity to baseline and was therefore employed for subsequent biochemical studies evaluating NRF2 stability and nuclear translocation. FIGS. 21B and 21C show the quantification (FIG. 21B) and immunoblots (FIG. 21C) of myc-NRF2, GAPDH, and H2B in whole cell lysates and cytoplasmic and nuclear subcellular fractions of HEK-293 cells overexpressing FLAG-KEAP1 and myc-NRF2, treated with vehicle, 10 μM MG-132, 10 μM sulforaphane (SF), 10 μM exemestane, or 10 μM JQ-1 for 6 hours. Data are expressed as a normalized ratio of nuclear myc-NRF2 compared to the vehicle-treated condition. FIG. 21D is immunoblots of lysates (input) and myc immunoprecipitate (IP) from HEK-293 cells overexpressing FLAG-KEAP1, myc-NRF2, and HA-ubiquitin. Data are either representative of or quantified from n=3 independent experiments except in FIG. 21A, where n=1 in triplicate. In FIG. 21A, mean f SEM depicted. In FIG. 21B, median and range depicted. *=P<0.05 and ns=P>0.05 by one-way ANOVA followed by post-hoc Dunnett's test."}, "[2]": {"test_system": "constrictive mouse model of trigeminal neuralgia", "assay": "Cold allodynia (ice-cold acetone) after constriction of the maxillary nerve", "assay_type": "in vivo", "settings": "for cold allodynia (ice-cold acetone): WT mice, i.p. daily for two days before surgery and daily after behavior testing, sulforaphane, exemestane, letrozole 10 mg/kg, JQ-1 40 mg/kg, ascorbate 100 mg/kg, vs vehicle", "protocol": "Constriction of the Maxillary Nerve Constriction of the maxillary division of trigeminal nerve was performed as previously described (See Benedetti, A., et al., Biochimica Et Biophysica Acta Bba—Lipids Lipid Metabolism 620, 281-296 (1980) and Vos, B., et al J Neurosci 14, 2708-2723 (1994)). The procedure was performed under direct visualization and control with a surgical microscope. Mice were first anesthetized with ketamine (100 mg/kg, i.p.) and xylazine (12.5 mg/kg, i.p.) and monitored by pinching the skin between the toes with forceps and monitoring for withdrawal. Mice were restrained with adhesive tape to a sterilized polystyrene board. Upon sufficient anesthesia, the scalp was shaved and an anterior to posterior skin incision was made at the midline to expose the nasal and maxillary bones. The maxillary nerve was exposed and carefully dissected free from the surrounding connective tissue. The distal end of the maxillary nerve was then loosely constricted using 8-0 silk sutures as a ligature. The sutures were tied using a slip knot followed by a normal knot, after which any remaining suture was cut free. The incision was then closed with a 4-0 silk suture. In the sham procedure, the left maxillary nerve was exposed but not constricted. Mice were monitored and rehydrated until fully recovered from anesthesia.\nPharmacologic Treatments Mice were dosed with either sulforaphane (10 mg/kg, i.p.), exemestane (10 mg/kg, i.p.), letrozole (10 mg/kg, i.p.), (+)-JQ-1 (40 mg/kg, i.p.), (−)-JQ-1 (40 mg/kg, i.p.), or ascorbate (100 mg/kg, i.p.) as indicated below. Mice were first dosed daily for two days before surgery and again daily just after behavior testing. For local exemestane treatment, exemestane (5 μL, 25 μg total) was applied directly to the maxillary nerve. Mice received a single dose during surgery. Mice were dosed with AM-0902 (30 mg/kg, p.o.). Mice were treated with AM-0902 were dosed 30 min prior to behavior testing. Mice were dosed with tamoxifen (75 mg/kg, i.p.). Mice were dosed once every 24 hrs over 5 consecutive days. Behavioral and molecular tests were only performed 7 or more days after the final tamoxifen injection.\nCold Allodynia Cold allodynia was assessed in C57BL/6J, TRPA1^+/+, TRPA1^−/−, Keap1(f/f), and Keap1(f/f)/CMV-CreER mice using ice-cold acetone as previously outlined (See Yoon, C., et al., Pain 59, 369-376 (1994)). Animals were placed individually in transparent plastic boxes and allowed to acclimatize to the environment for at least 30 min before testing. After habituation, 20 μl of cold acetone was applied to the ligated vibrissal pad skin surface. Cold allodynia was measured as the average time spent wiping the region in a 60 s period, with a maximum of 5 seconds between bouts of wiping. Allodynia was measured three times with 10 min between intervals. Changes in cold allodynia were considered relative to sham- or vehicle-treated animal controls. Behavior was assessed concomitantly or in a blocked manner with consideration for both genotype and treatment."}, "NRF2 [3]": {"test_system": "NRF2", "assay": "NRF2/ARE Luciferase Reporter Assay (HEK293 stable cell line)", "assay_type": "cell-based, human", "settings": "6 hrs exposure to varying concentrations, relative to vehicle, normalized to total protein", "protocol": "NRF2/ARE Luciferase Reporter Assay NRF2 activity was monitored with a reporter cell line in which changes in NRF2 activity are coupled to the expression of firefly luciferase (NRF2/ARE Luciferase Reporter HEK293 Stable Cell Line). Luciferase activity was quantified with the Luciferase Assay System as per the manufacturer's instructions. Briefly, cells were plated at 125,000 cells/well in a 24-well plate. The following day, cells were treated with either vehicle or varying doses of sulforaphane, exemestane, or JQ-1 for 6 hours. Cells were then lysed in passive lysis buffer (Promega E1941) supplemented with protease inhibitors (Sigma). Lysates were then cleared at 16,000 g for 15 minutes at 4° C. 15 μL of each lysate was mixed with 5 μL of luciferase assay substrate (Promega). Total light was measured using a luminometer with a 10 second integration time with a delay of 2 seconds. Luciferase measurements were normalized to total protein and reported as normalized to the vehicle condition."}}, "note": "“Also recorded” adds a separate entry of the source."}
{"smiles": "Cc1sc2c(c1C)C(c1ccc(Cl)cc1)=N[C@@H](CC(=O)OC(C)(C)C)c1nnc(C)n1-2", "note": "[JQ-1, (S)-tert-butyl 2-(4-(4-chlorophenyl)-2,3,9-trimethyl-6H-thieno[3,2-f][1,2,4]triazolo[4,3-a][1,4]diazepin-6-yl)acetate]", "values": [{"measurement": "stabilization of NRF2", "setting": "NRF2 [1]", "value": "neither stabilizes NRF2"}, {"measurement": "nuclear translocation of NRF2", "setting": "NRF2 [1]", "value": "does not"}, {"measurement": "inhibition of NRF2 ubiquitination", "setting": "NRF2 [1]", "value": "nor inhibits its ubiquitination"}, {"measurement": "cold allodynia (ice-cold acetone)", "setting": "[2]", "value": "much less sensitive"}, {"measurement": "cold allodynia (ice-cold acetone)", "setting": "[2]; listed as (+)-JQ-1", "value": "lowered"}, {"measurement": "luciferase expression in the NRF2 reporter line", "setting": "NRF2 [3]", "value": "did not stimulate luciferase expression"}]}
{"smiles": "C=C1C[C@@H]2[C@H](CC[C@]3(C)C(=O)CC[C@@H]23)[C@@]2(C)C=CC(=O)C=C12", "note": "[exemestane, 6-methylenandrosta-1,4-diene-3,17-dione]", "values": [{"measurement": "stabilization of NRF2", "setting": "NRF2 [1]", "value": "both sulforaphane and exemestane do"}, {"measurement": "nuclear translocation of NRF2", "setting": "NRF2 [1]", "value": "promote nuclear translocation of NRF2"}, {"measurement": "inhibition of NRF2 ubiquitination", "setting": "NRF2 [1]", "value": "both sulforaphane and exemestane do"}, {"measurement": "cold allodynia (ice-cold acetone)", "setting": "[2]", "value": "much less sensitive; also recorded: lowered"}, {"measurement": "cold allodynia", "setting": "[2]; single local treatment, exemestane 25 μg/site applied directly to the maxillary nerve during surgery", "value": "lessened"}, {"measurement": "luciferase expression in the NRF2 reporter line", "setting": "NRF2 [3]", "value": "similarly increased luciferase expression"}]}
{"smiles": "C[S+]([O-])CCCCN=C=S", "note": "(centres unmarked) [sulforaphane, 1-isothiocyanato-4-(methanesulfinyl)butane]", "values": [{"measurement": "stabilization of NRF2", "setting": "NRF2 [1]", "value": "both sulforaphane and exemestane do"}, {"measurement": "nuclear translocation of NRF2", "setting": "NRF2 [1]", "value": "promote nuclear translocation of NRF2"}, {"measurement": "inhibition of NRF2 ubiquitination", "setting": "NRF2 [1]", "value": "both sulforaphane and exemestane do"}, {"measurement": "cold allodynia (ice-cold acetone)", "setting": "[2]", "value": "less sensitive"}, {"measurement": "luciferase expression in the NRF2 reporter line", "setting": "NRF2 [3]", "value": "dose-dependently increased luciferase expression"}]}
